This is an account of results in ChEMBL document CHEMBL1240395 (Antimicrob Agents Chemother, 2010).

One data set has as its system Cryptosporidium parvum. Put plainly: Antiparasitic activity against Cryptosporidium parvum infected in human […] cells after 46 hrs by immunofluorescence method. In kind it is functional, organism-based.
In data set [1] the test system is HCT-8. Put plainly: Cytotoxicity against human HCT8 cells at 1.96 to 22.7 uM. The format is cell-based. Particulars: hct-8, 22.7 µM; call rule not given here.
The subject of data set [2] is HCT-8. Put plainly: Cytotoxicity against human HCT8 cells assessed as effect on cell viability at 25.69 to 37.22 uM. In kind it is cell-based. Particulars: hct-8, 37.22 µM.
Where [3] appears, read: Cryptosporidium parvum, HCT-8, 46 h, read-out: IC50.

In brackets after ≈: the same amount, converted by molar mass. Several values for one entry are separate records, joined by “and”; a condition that tells them apart may be missing. Equal entries are not always repeated.

What is called IC50 is the concentration at which inhibition is half-maximal. In the case of `Cc1ccc(C(=O)Nc2ncc(Br)s2)c(O)c1`, the IC50 in the data set on Cryptosporidium parvum (setting [3]) came to 5.2 µg/mL (≈ 16.6 µM); in the data set on Cryptosporidium parvum (htc8) it was 9.3 µg/mL (≈ 29.7 µM). In addition, in the data set with HCT-8 [1], the Activity entry is recorded as “Non-toxic”.
Turning to `Cc1ccc(C(=O)Nc2ncc(Cl)s2)c(O)c1`, the Activity entry is “Non-toxic” in the data set with HCT-8 [1] and “Toxic” with HCT-8 [2].
Turning to `CC(=O)Oc1ccccc1C(=O)Nc1ncc(S(C)(=O)=O)s1`, the IC50 with Cryptosporidium parvum (setting [3]) is 5 µg/mL (≈ 14.7 µM); with Cryptosporidium parvum (htc8), “Not Active”. The Activity entry with HCT-8 [1] is reported as “Non-toxic”.
The corresponding values for `CCOC(=O)Cc1csc(NC(=O)c2ccccc2OC(C)=O)n1` are 8.4 µg/mL (≈ 24.1 µM), “Not Active” and “Non-toxic”.
Take `CC(=O)Oc1c(C)cccc1C(=O)Nc1ncc([N+](=O)[O-])s1`: the IC50 was 0.5 µg/mL (≈ 1.56 µM) in the data set with Cryptosporidium parvum (setting [3]) and 1 µg/mL (≈ 3.11 µM) in the data set on Cryptosporidium parvum (htc8). Further, the Activity entry was “Non-toxic” with HCT-8 [1] and “Toxic” in the data set with HCT-8 [2].
The corresponding values for `Cc1nc(NC(=O)c2ccccc2O)sc1[N+](=O)[O-]` are 0.6 µg/mL (≈ 2.15 µM), 1 µg/mL (≈ 3.58 µM), “Non-toxic” and “Toxic”.
For the molecule `COc1ccccc1C(=O)Nc1ncc([N+](=O)[O-])s1`, the values for the IC50 with Cryptosporidium parvum (setting [3]) and in the data set on Cryptosporidium parvum (htc8) were 5.5 µg/mL (≈ 19.7 µM) and “Not Active”, respectively. Further, the Activity entry with HCT-8 [1] is given as “Non-toxic”.
In the case of `Cc1cccc(C(=O)Nc2ncc(Cl)s2)c1O`, the IC50 in the data set with Cryptosporidium parvum (setting [3]) is 2.3 µg/mL (≈ 8.56 µM); with Cryptosporidium parvum (htc8), 4.6 µg/mL (≈ 17.1 µM). In addition, the Activity result in the data set on HCT-8 [1] is reported as “Non-toxic”; with HCT-8 [2], “Toxic”.
Regarding `O=C(Nc1ncc(Br)s1)c1ccccc1O`, in the data set on HCT-8 [1], the Activity result is reported as “Non-toxic”.
On to `O=C(Nc1ncc(-c2ccccc2Cl)s1)c1ccccc1O`, for which the figures for the IC50 in the data set on Cryptosporidium parvum (setting [3]) and in the data set with Cryptosporidium parvum (htc8) were 6.1 µg/mL (≈ 18.4 µM) and “Not Active”, respectively. Further, the Activity entry in the data set on HCT-8 [1] was “Non-toxic”; in the data set with HCT-8 [2] it was “Toxic”.
As to `CC(=O)Oc1cc(C)ccc1C(=O)Nc1ncc(Br)s1`, in the data set on HCT-8 [1], the Activity entry is “Non-toxic”.
In the case of `CS(=O)(=O)c1cnc(NC(=O)c2ccccc2O)s1`, the IC50 was 6.9 µg/mL (≈ 23.1 µM) in the data set on Cryptosporidium parvum (setting [3]) and “Not Active” in the data set on Cryptosporidium parvum (htc8). Also, in the data set with HCT-8 [1], the Activity result is on record as “Non-toxic”.
The corresponding values for `O=C(Nc1nccs1)c1ccccc1O` are greater than 10 µg/mL, “Not Active” and “Non-toxic”.
On to `O=C(Nc1ncc(C2CCCCC2)s1)c1ccccc1O`, for which the figures for the IC50 in the data set with Cryptosporidium parvum (setting [3]) and in the data set on Cryptosporidium parvum (htc8) were greater than 10 µg/mL and “Not Active”, respectively. The Activity entry with HCT-8 [1] was “Non-toxic”.
The corresponding values for `CC(=O)Oc1ccccc1C(=O)Nc1nncs1` are 5 µg/mL (≈ 19 µM), “Not Active” and “Non-toxic”.
Regarding `CC(=O)Oc1ccccc1C(=O)Nc1nc(C)c(Br)s1`, in the data set with Cryptosporidium parvum (htc8), the IC50 is 2.1 µg/mL and 4.8 µg/mL. Also, in the data set with HCT-8 [1], the Activity result was “Non-toxic”.
Take `Cc1cccc(C(=O)Nc2nc(-c3ccccc3)c(Br)s2)c1O`: the Activity entry with HCT-8 [1] is reported as “Non-toxic”; in the data set with HCT-8 [2] it was “Toxic”.
`CC(=O)Oc1ccccc1C(=O)Nc1nnc(C(F)(F)F)s1`: the Activity result in the data set with HCT-8 [1] is recorded as “Non-toxic”.
On to `Cc1cnc(NC(=O)c2ccccc2O)s1`, for which the IC50 with Cryptosporidium parvum (setting [3]) is greater than 10 µg/mL; in the data set on Cryptosporidium parvum (htc8), “Not Active”. The Activity result in the data set with HCT-8 [1] was “Non-toxic”.
The corresponding values for `CCCc1cnc(NC(=O)c2ccccc2O)s1` are 6.7 µg/mL (≈ 25.5 µM), “Not Active” and “Non-toxic”.
Consider `Cc1cccc(C(=O)Nc2ncc(Br)s2)c1O`, for which the Activity result in the data set with HCT-8 [1] is “Non-toxic”; in the data set with HCT-8 [2], “Toxic”.
Turning to `CC(=O)Oc1ccccc1C(=O)Nc1ncc(Br)s1`, the Activity result in the data set on HCT-8 [1] is on record as “Non-toxic”.
On to `COc1cccc(C(=O)Nc2ncc([N+](=O)[O-])s2)c1O`, for which the IC50 in the data set with Cryptosporidium parvum (htc8) was 0.4 µg/mL and 1 µg/mL. For the same molecule, the Activity entry was “Non-toxic” in the data set on HCT-8 [1] and “Toxic” with HCT-8 [2].
Turning to `Cc1ccc(O)c(C(=O)Nc2ncc(Cl)s2)c1`, the Activity entry with HCT-8 [1] is “Non-toxic”.
On to `O=C(Nc1ncc(F)s1)c1ccccc1O`, for which the Activity result in the data set with HCT-8 [1] is given as “Non-toxic”; in the data set with HCT-8 [2] it was “Toxic”.
As to `O=C(Nc1ncc(Cl)s1)c1ccccc1O`, the IC50 in the data set on Cryptosporidium parvum (htc8) is 2.6 µg/mL and 6 µg/mL. Moreover, the values for the Activity result with HCT-8 [1] and with HCT-8 [2] were “Non-toxic” and “Toxic”, respectively.
Regarding `CC(=O)Oc1ccc(C)cc1C(=O)Nc1ncc(Br)s1`, in the data set with Cryptosporidium parvum (htc8), the IC50 was 1.7 µg/mL and 4.4 µg/mL. The Activity entry is recorded as “Non-toxic” in the data set with HCT-8 [1] and “Toxic” in the data set on HCT-8 [2].
Take `Cc1cccc(C(=O)Nc2nc(C)c(Br)s2)c1O`: the figures for the Activity result with HCT-8 [1] and in the data set on HCT-8 [2] were “Non-toxic” and “Toxic”, respectively.
As for `CCOC(=O)Cc1nnc(NC(=O)c2ccccc2OC(C)=O)s1`, the IC50 with Cryptosporidium parvum (setting [3]) was greater than 10 µg/mL; in the data set on Cryptosporidium parvum (htc8), “Not Active”. In addition, the Activity result in the data set with HCT-8 [1] is on record as “Non-toxic”.
`O=C(Nc1nc(-c2ccccc2)c(Br)s1)c1ccccc1O`: the IC50 in the data set on Cryptosporidium parvum (htc8) is 0.4 µg/mL and 1 µg/mL. The Activity entry in the data set with HCT-8 [1] is given as “Non-toxic”; in the data set on HCT-8 [2] it was “Toxic”.
Take `COc1cccc(C(=O)Nc2ncc(Br)s2)c1OC(C)=O`: the IC50 with Cryptosporidium parvum (setting [3]) was 4.6 µg/mL (≈ 12.4 µM); in the data set on Cryptosporidium parvum (htc8), “Not Active”. Also, the Activity entry with HCT-8 [1] is on record as “Non-toxic”.
Turning to `CC(=O)Oc1ccc(C)cc1C(=O)Nc1ncc(Cl)s1`, the Activity result in the data set with HCT-8 [1] was “Non-toxic”; with HCT-8 [2], “Toxic”.
Regarding `CSc1nnc(NC(=O)c2ccccc2OC(C)=O)s1`, the IC50 worked out at 6.4 µg/mL (≈ 20.7 µM) with Cryptosporidium parvum (setting [3]) and 9.2 µg/mL (≈ 29.7 µM) in the data set on Cryptosporidium parvum (htc8). For the same molecule, the Activity entry in the data set with HCT-8 [1] is given as “Non-toxic”; in the data set on HCT-8 [2] it was “Toxic”.
Regarding `Cc1nc(NC(=O)c2ccccc2O)sc1Br`, the values for the Activity entry in the data set on HCT-8 [1] and with HCT-8 [2] were “Non-toxic” and “Toxic”, respectively.
In the case of `CC(=O)Oc1ccccc1C(=O)Nc1ncc([N+](=O)[O-])s1` [NITAZOXANIDE], the Activity result in the data set on HCT-8 [1] is given as “Non-toxic”.
`CC(=O)Oc1c(C)cccc1C(=O)Nc1ncc(Br)s1`: the results for the Activity entry with HCT-8 [1] and in the data set with HCT-8 [2] were “Non-toxic” and “Toxic”, respectively.
